# In patent publication US12100497B1, “Population-based immune rescue via herd immunity mediated by cells” (Channel Content Company LLC, priority 2023, dated 2024):
# How the values were obtained:
# [1] = tested on: acute respiratory illness; details: higher doses of vitamin D; patients studied for a year; cited from earlier work
# [2] = vitamin D exposure over 10 years; cohort of 12,388 persons; cited from earlier work
# Covid [3] = test: One year investigation at Prestige Home Health, vitamin D protocol, Covid positive tests; type: in vivo, human; details: target vitamin D level 60 ng/ml
# Procedure: In order to test some of the concepts disclosed herein, a one year investigation was conducted to gather data where there was an objective of bringing participants to a target level of vitamin D of 60 ng/ml treated at home by staff at Prestige Home Health in Starr county, Texas and also residents of nursing homes. Data on patients and staff was provided by Yolanda Garza registered nurse (RN)/Director of Nursing (DON) on Sep. 19, 2022. For patients that followed the disclosed protocol, zero tested positive for Covid as compared to fifty-three patients who tested positive for Covid who were not on the protocol. During the same one year period, four staff members on the disclosed protocol tested positive for Covid compared to 83 staff members who tested positive who were not on the disclosed protocol. Prestige Home Health also provided portable humidifiers in homes of many of the patients treated at home. Little or no sensors were provided to determine the level of humidification. Retama Manor also tried to make indoor humidify viral safe inside their facility by including humidifiers again without sensors. Though the capacity of their humidifiers was subpar, indoor humidity in all likelihood contributed to the facility's remarkable overall success. Only one patient at Retama Manor whose Vitamin D level was in the viral safe range tested positive during the 15 month study period.
# Covid [4] = test: Retama Manor nursing home 15 month study, vitamin D protocol, Covid positive tests; type: in vivo, human
substance,measurement,setting,value
vitamin D,reduction in acute respiratory illness,[1],40%
same,lowering of the risk of dementia,[2],40%
same,patients on the disclosed protocol who tested positive for Covid,Covid [3]; 53 positive patients not on protocol,zero
same,staff members on the disclosed protocol who tested positive for Covid,Covid [3]; 83 positive staff not on protocol,four
same,"Covid cases per staff member, less than the other two nursing homes",Covid [4]; Retama Manor versus the other two nursing homes in Rio Grande City,45%
same,patients on vitamin D protocol / in viral safe range who tested positive for Covid,"Covid [4]; Retama Manor, 15 month (six quarter) study period",one
same,Dr. Mussett's patients who tested positive for Covid,"Covid [4]; their patients at all three nursing homes in Rio Grande City, study period",two
